The source of these data is ChEMBL document CHEMBL1153984, “Ganoderic acid DM: anti-androgenic osteoclastogenesis inhibitor” (Bioorg Med Chem Lett, 2009).

The structures appear in SMILES notation. The source made the active and inactive calls. The calls are words filed in the database; no cut-off is given here.

A short description of data set [1]: (§1) Inhibition of 5-alpha-reductase in rat liver microsome assessed as conversion of [14C] testosterone to [14C] dihydrotestosterone. Type of data set: microsomes. In general terms: Liver microsomes are vesicles of endoplasmic reticulum, rich in cytochrome P450 enzymes.
The test system of data set [2] is LNCaP. The data set is described as follows: Growth inhibition of human LNCAP cells assessed as decrease in cell viability after 3 days by NR assay. Format: functional, cell-based.
Data set [3] can be described thus: Cytotoxicity against mouse RAW264 cells assessed as viable cells at 25 uM after 3 days by WST1 assay. Type of data set: cell-based. The following applies: read-out: Activity. For orientation: Tetrazolium dyes change colour on reduction, which living cells bring about.
Data set [4] relates to LNCaP. The data set is described as follows: Growth inhibition against dihydrotestosterone-induced human LNCAP cell proliferation assessed as decrease in cell viability after 3 dayssby NR assay. Type of data set: functional, cell-based.
Data set [5] deals with PC-3. The data set is described as follows: Antiproliferative activity against human PC3 cells at 12.5 to 50 uM after 3 days by NR assay. Type of data set: functional, cell-based.
Data set [6] has as its target T1, Androgen receptor (Homo sapiens) (UniProt P10275).
T1 sequence (whole entry): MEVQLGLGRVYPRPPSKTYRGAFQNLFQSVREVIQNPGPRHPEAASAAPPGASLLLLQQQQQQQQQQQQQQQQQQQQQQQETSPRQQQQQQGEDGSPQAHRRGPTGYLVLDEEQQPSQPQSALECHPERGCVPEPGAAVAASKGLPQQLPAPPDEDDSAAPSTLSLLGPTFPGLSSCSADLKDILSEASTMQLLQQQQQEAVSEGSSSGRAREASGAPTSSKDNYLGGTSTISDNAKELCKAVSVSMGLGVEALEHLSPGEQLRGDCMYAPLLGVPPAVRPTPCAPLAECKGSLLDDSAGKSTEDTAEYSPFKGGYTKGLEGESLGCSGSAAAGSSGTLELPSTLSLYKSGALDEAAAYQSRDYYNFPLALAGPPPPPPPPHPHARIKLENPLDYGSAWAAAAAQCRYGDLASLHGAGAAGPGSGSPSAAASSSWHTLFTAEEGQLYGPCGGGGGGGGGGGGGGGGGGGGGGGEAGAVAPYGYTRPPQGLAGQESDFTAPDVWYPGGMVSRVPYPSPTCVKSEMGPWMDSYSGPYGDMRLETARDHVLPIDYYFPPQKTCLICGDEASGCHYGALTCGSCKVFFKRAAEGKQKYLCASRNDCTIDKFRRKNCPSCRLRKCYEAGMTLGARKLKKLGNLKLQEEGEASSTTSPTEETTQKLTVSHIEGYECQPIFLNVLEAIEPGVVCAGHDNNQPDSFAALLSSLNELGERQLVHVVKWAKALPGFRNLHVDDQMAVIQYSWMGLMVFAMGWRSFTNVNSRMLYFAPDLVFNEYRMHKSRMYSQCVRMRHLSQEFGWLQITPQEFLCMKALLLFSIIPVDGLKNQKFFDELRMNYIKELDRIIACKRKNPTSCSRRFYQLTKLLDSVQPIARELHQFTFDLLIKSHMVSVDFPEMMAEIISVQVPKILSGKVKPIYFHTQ
In words: Inhibition of DHT binding to human recombinant androgen receptor ligand binding domain at 15 uM by fluorescence polarization. Further details: scale not given: the % may be the effect or the level left.

For the next data set, the species on record is Rattus norvegicus. The description is as §1. Format: microsomes.
The nature of data set [7]: Cytotoxicity against mouse RAW264 cells assessed as cell number at 12.5 uM after 3 days by WST1 assay. Type of data set: cell-based. The following applies: raw264, 72 h.
For data set [8], the system named is LNCaP. In words: Growth inhibition against testosterone-induced human LNCAP cell proliferation assessed as decrease in cell viability after 3 dayssby NR assay. Format: functional, cell-based.
The nature of data set [9]: Inhibition of osteoclastogenesis in RANKL-stimulated mouse RAW264 cells at 12.5 uM after 3 days by TRAP assay. Format: functional. To be noted: RAW264.7, 72 h.
The test system of a further data set is RAW264. The data set is described as follows: Inhibition of osteoclastogenesis in RANKL-stimulated mouse RAW264 cells at 25 uM after 3 days by TRAP assay. Format: functional, cell-based.
Data set [10] concerns PC-3. The data set is described as follows: Antiproliferative activity against human PC3 cells after 3 days by NR assay. Type of data set: functional, cell-based.

As usually defined, the IC50 is the concentration that inhibits the measured activity by half. Regarding `CC/C=C\C/C=C\C/C=C\CCCCCCCC(=O)O` [LINOLENIC ACID], the IC50 in data set [1] came to 116 µM.
On the same count and under the same terms, then `CC(C)(C)NC(=O)[C@H]1CC[C@H]2[C@@H]3CC[C@H]4NC(=O)C=C[C@]4(C)[C@H]3CC[C@]12C` [FINASTERIDE], with 0.73 µM.
By inhibition is commonly meant the share of the control response that was lost under treatment. On to `C/C(=C/CC[C@@H](C)[C@H]1CC[C@@]2(C)C3=C(CC[C@]12C)[C@@]1(C)CCC(=O)C(C)(C)[C@@H]1CC3=O)C(=O)O` [GANODERIC ACID DM], for which the Activity result was “Dose-dependent effect” in the data set on LNCaP [2]; “Dose-dependent effect” in the data set on LNCaP [4]; 50% in [6]; “Dose-dependent effect” in the data set listed under Rattus norvegicus; “Non-toxic” in data set [7]; “Dose-dependent effect” with LNCaP [8]. Further, the viability at 72 h, 25 µM in [3] is 72%. In addition, in the data set with PC-3 [5], the result was Active. Further, the IC50 in data set [1] was found to be 10.6 µM. In data set [9], this molecule had an inhibition at 12.5 µM of 40%. Further, the result in the data set on RAW264 was inactive.
As for `C/C(=C\CC[C@@H](C)[C@H]1CC[C@@]2(C)C3=CC[C@H]4C(C)(C)[C@@H](O)CC[C@]4(C)C3=CC[C@]12C)CO`, the outcome in the data set on PC-3 [10] was inactive.
